Measured values reported in patent publication US20130078224A1, “INDUCTION/MONITORING OF ARTERIOGENESIS USING SDF1 AND PDGFB OR INHIBITION OF PHD2” (LIFE SCIENCES RESEARCH PARTNERS VZW, priority 2010, published 2013).

What was measured:
PDGFB, SDF1, and Tie2 = assay: Gene expression (qRT-PCR) in PHD2Rosa26CreERT;lox/wt peritoneal macrophages after 4-OHT; format: cell-based, mice; conditions: 2 μM, 48 hours
Protocol: Macrophage Preparation: To harvest peritoneal macrophages (pMØ), the peritoneal cavity was washed with 5 ml of RPMI 10% FBS. The pooled cells were then seeded in RPMI 10% FBS in six-well plates (2×10^6 cells/well), twelve-well plates (1×10^6 cells/well), or 24-well plates (5×10^5 cells/well). After six hours of incubation at 37° C. in a moist atmosphere of 5% CO2 and 95% air, non-adhering cells on each plate were removed by rinsing with phosphate-buffered saline (PBS). The attached macrophages were cultured in different mediums for 12 hours or 48 hours, depending on the experiments performed, as described below. When high amounts of cells were needed (analysis for HIF accumulation and NF-κB activity), macrophages were derived from bone marrow precursors as described before (Meerpohl et al., Eur. J. Immuno. 6:213-7, 1976). Briefly, bone marrow cells (2×10^6 cells/ml) were cultured in a volume of 5 ml in a 10 cm Petri dish (non-tissue culture-treated, bacterial grade) for ten days in DMEM supplemented with 20% FBS and 30% L929 conditioned medium as a source of M-CSF. The cells obtained in those cultures are uniformly macrophages. […]
Quantitative PCR Analysis: In order to investigate gene expression in pMØ, quantitative RT-PCR (qRT-PCR) was performed. […] Quantitative RT-PCR was perfouned with commercially available or homemade primers and probes for the studied genes. […]

NF-κB [1] = assay: NF-κB-responsive firefly luciferase reporter assay in bone marrow-derived macrophages; format: cell-based, mice; conditions: PHD2 haplodeficient vs WT macrophages
Protocol: Transduction and Transfection of Bone Marrow-Derived Macrophages and Lung Endothelial Cells: To express an inducible NF-κB responsive firefly luciferase reporter, commercially available lentiviral vector particles (LV) were used (Cignal Lenti NF-κB Reporter; SABiosciences). 2.5×10^5 bone marrow-derived macrophages and 10^5 primary lung endothelial cells (isolated as previously described (Mazzone et al., 2009, see above)) were seeded in a 24-well plate in DMEM 10% FBS or M199 20% FBS for eight hours. Cells were transduced with 10^8 TU/ml. Eight hours after transduction, the medium wash was replaced. After 48 hours, cells were stimulated with TNFα (20 ng/mL) for eight hours and the same amount of protein extract was read in a luminometer. For PHD3 silencing, siRNA oligonucleotides were designed using the Invitrogen online siRNA design tool (world wide web at maidesigner.invitrogen.com). The following sequences (sense strands) and target positions were used: PHD3 siRNA: 5′-[…]-3′ (SEQ ID NO:1); scramble siRNA:5′-[…]-3′ (SEQ ID NO:2). In brief, one day after the transduction of macrophages with LV, cells were transfected using Lipofectamine 2000 (Invitrogen) according to the manufacturer's instructions. Preparation of the oligonucleotide-Lipofectamine 2000 complexes was done as followed: 25 pmol siRNA oligonucleotide (stock: 20 μM) was diluted in 50 μl Opti-MEM I reduced serum medium. Lipofectamine 2000 (1.5 μl) was diluted in 50 μl Opti-MEM I reduced serum medium and incubated for five minutes at room temperature. siRNA oligonucleotides were gently mixed with Lipofectamine 2000 and allowed to incubate at room temperature for twenty minutes to form complexes. Just before transfection, the cell culture medium was removed and cells were rinsed twice with serum-free Opti-MEM I medium. The Lipofectamine 2000-siRNA oligonucleotide complexes were added to each well in 400 μl of serum-free Opti-MEM medium for five hours. Afterwards, cells were incubated in complete medium for 48 hours at 37° C. in a CO2 incubator and assayed for gene knockdown (qRT-PCR) and luciferase activity. To assess if the increased NFkB activity observed in PHD2^+/− macrophages was dependent on the hydroxylase activity of PHD2, 48 hours before transduction, 4×10^6 bone marrow-derived macrophages were resuspended in 240 μl of Opti-MEM and were electroporated (250 V, 950 uF, ∝ Ω) with 7 μg of plasmids expressing a wild-type PHD2 (PHD2^wt) or a PHD2 containing a mutation at the catalytic site (PHD2^H313A).

NF-κB [2] = assay: NF-κB-responsive luciferase reporter assay in primary lung endothelial cells; format: cell-based, mice; conditions: WT and PHD2+/- ECs, TNF-α 20 ng/mL, eight hours
Protocol: Transduction and Transfection of Bone Marrow-Derived Macrophages and Lung Endothelial Cells: To express an inducible NF-κB responsive firefly luciferase reporter, commercially available lentiviral vector particles (LV) were used (Cignal Lenti NF-κB Reporter; SABiosciences). 2.5×10^5 bone marrow-derived macrophages and 10^5 primary lung endothelial cells (isolated as previously described (Mazzone et al., 2009, see above)) were seeded in a 24-well plate in DMEM 10% FBS or M199 20% FBS for eight hours. Cells were transduced with 10^8 TU/ml. Eight hours after transduction, the medium wash was replaced. After 48 hours, cells were stimulated with TNFα (20 ng/mL) for eight hours and the same amount of protein extract was read in a luminometer. For PHD3 silencing, siRNA oligonucleotides were designed using the Invitrogen online siRNA design tool (world wide web at maidesigner.invitrogen.com). The following sequences (sense strands) and target positions were used: PHD3 siRNA: 5′-[…]-3′ (SEQ ID NO:1); scramble siRNA:5′-[…]-3′ (SEQ ID NO:2). In brief, one day after the transduction of macrophages with LV, cells were transfected using Lipofectamine 2000 (Invitrogen) according to the manufacturer's instructions. Preparation of the oligonucleotide-Lipofectamine 2000 complexes was done as followed: 25 pmol siRNA oligonucleotide (stock: 20 μM) was diluted in 50 μl Opti-MEM I reduced serum medium. […]

[3] = early clinical trials in myocardial infarction; cited from earlier work
PHD2 = PHD2 expression (qPCR) in bone marrow-derived monocyte/macrophage cultures upon cytokine stimulation; format: cell-based, mice
Protocol: Quantitative PCR Analysis: In order to investigate gene expression in pMØ, quantitative RT-PCR (qRT-PCR) was performed. After preparing pMØ, the cells were cultured in normoxic condition for twelve hours, and the RNA was extracted. To analyze the gene profile of adductor, gastrocnemius, and soleus muscle, tissues were collected at baseline or 24 hours/72 hours post-ischemia and RNA was extracted. Macrophages and ECs were freshly sorted from dissected adductors as described below and RNA was extracted. Quantitative RT-PCR was perfouned with commercially available or homemade primers and probes for the studied genes. The assay ID (Applied Biosystems, Foster City, Calif.) or the sequence of primers and probes (when homemade) are listed in Table 5. RNA levels of Tie-2, SDF1 and PDGFB after inhibition of NF-κB pathway were measured by qRT-PCR on pMØ exposed for twelve hours to 500 nM 6-amino-4-(4-phenoxyphenylethylamino)quinazoline. […] After 24 hours, cells were harvested for RNA extraction and cDNA preparation.

Tie2, PDGFB and SDF1 = assay: Expression of PDGFB, SDF1 and Tie2 (qPCR) in monocytes/macrophages upon angiopoietin-1; format: cell-based, mice; conditions: monocytes/macrophages after angiopoietin-1 stimulation (50 and 250 ng/ml)
Protocol: Quantitative PCR Analysis: In order to investigate gene expression in pMØ, quantitative RT-PCR (qRT-PCR) was performed. After preparing pMØ, the cells were cultured in normoxic condition for twelve hours, and the RNA was extracted. To analyze the gene profile of adductor, gastrocnemius, and soleus muscle, tissues were collected at baseline or 24 hours/72 hours post-ischemia and RNA was extracted. Macrophages and ECs were freshly sorted from dissected adductors as described below and RNA was extracted. Quantitative RT-PCR was perfouned with commercially available or homemade primers and probes for the studied genes. The assay ID (Applied Biosystems, Foster City, Calif.) or the sequence of primers and probes (when homemade) are listed in Table 5. RNA levels of Tie-2, SDF1 and PDGFB after inhibition of NF-κB pathway were measured by qRT-PCR on pMØ exposed for twelve hours to 500 nM 6-amino-4-(4-phenoxyphenylethylamino)quinazoline. To evaluate PHD2 levels on monocyte/macrophage cultures, 2.5×10^5 bone marrow-derived monocytes/macrophages (see above) were seeded in a 24-well plate in DMEM 10% FBS and stimulated with 50 ng/ml angiopoietin-1 (Peprotech) or 50 ng/ml angiopoietin-2 (Prospec). After 24 hours, cells were harvested for RNA extraction and cDNA preparation.

**Q.** For 4-hydroxytamoxifen, which “expression of PDGFB, SDF1, and Tie2” value (PDGFB, SDF1, and Tie2) is on record?
**A.** increased expression

**Q.** With TNF-α as the molecule, how does the “TNF-α-induced NF-κB activation” value (NF-κB [1]) read?
**A.** significantly stronger

**Q.** And the NF-κB activity (NF-κB [2])?
**A.** increases to the same level

**Q.** For `C[C@H]1C[C@@H]2[C@H]([C@@H](O)C[C@@]3(C)[C@H]2CC[C@]3(O)C(=O)CO)[C@@]2(C)C=CC(=O)C=C12` [methylprednisolone], which “mortality due to left ventricle rupture” value [3] is on record?
**A.** drastically increased mortality

B1: angiopoietin-1: Tie2 ligand cytokine (Peprotech) (protein, UniProt Q15389 16-498, looked up)
Angiopoietin-1: HIGCSNQRRSPENSGRRYNRIQHGQCAYTFILPEHDGNCRESTTDQYNTNALQRDAPHVEPDFSSQKLQHLEHVMENYTQWLQKLENYIVENMKSEMAQIQQNAVQNHTATMLEIGTSLLSQTAEQTRKLTDVETQVLNQTSRLEIQLLENSLSTYKLEKQLLQQTNEILKIHEKNSLLEHKILEMEGKHKEELDTLKEEKENLQGLVTRQTYIIQELEKQLNRATTNNSVLQKQQLELMDTVHNLVNLCTKEGVLLKGGKREEEKPFRDCADVYQAGFNKSGIYTIYINNMPEPKKVFCNMDVNGGGWTVIQHREDGSLDFQRGWKEYKMGFGNPSGEYWLGNEFIFAITSQRQYMLRIELMDWEGNRAYSQYDRFHIGNEKQNYRLYLKGHTGTAGKQSSLILHGADFSTKDADNDNCMCKCALMLTGGWWFDACGPSNLNGMFYTAGQNHGKLNGIKWHYFKGPSYSLRSTTMMIRPLDF
**Q.** Which “PHD2 levels down-regulated, dose-dependent, up to” value (PHD2; WT monocytes/macrophages) does the source give for B1 here?
**A.** 50 % of the basal levels

**Q.** And the “PHD2 down-modulation in monocytes/macrophages” value (PHD2; after angiopoietin-1 stimulation)?
**A.** 40%

**Q.** And the “expression of Tie2, PDGFB and SDF1” value (Tie2, PDGFB and SDF1)?
**A.** increased expression
